The values below come from patent publication US20030157154A1, “Compositions containing hydroxy aromatic aldehydes and their use in treatments” (priority 2002, published 2003).

Test [1] relates to PGE-2. Briefly: IL-1 induced PGE-2 in human skin fibroblasts (ELISA of culture medium). Format: cell-based. Conditions: Skin fibroblast, IL-1 500 picograms/ml, 24 hours, read-out: percent inhibition of IL-1 induced PGE-2; for inhibition at 1 µM: compound 1 μM; for inhibition at 10 µM: compound 10 μM; for inhibition at 50 µM: compound 50 μM. Here is the method:
(§1) For this experiment, human skin fibroblasts were seeded into 12 well culture dishes at a density of 80,000 cells/well in tissue culture medium and left overnight to attach to the dish. The next day, medium was removed and replaced with fresh medium containing either 1% ethanol as a diluent control, IL-1 at a concentration of 500 picograms/ml, or IL-1 plus one of the compounds under investigation at a concentration of 1, 10, 50 or 100 μM. Cells were incubated for an additional 24 hours and at this time, the medium was removed and assayed by ELISA for the presence of PGE-2 in the culture medium.
(In general: In an ELISA, binding on a coated surface is turned into a signal by an enzyme label.)

The test system of test [2] is PGE-2. Briefly: TPA-induced PGE-2 in human skin keratinocytes (ELISA of culture medium). It counts as cell-based. Conditions: TPA 32 nM. Here is the method: as §1
Similar in vitro studies as those described in Example 1 were run using human skin keratinocytes except that the aromatic aldehyde was not added t. The experimental set up was the same as described for Example 1, but replacing IL-1 with tetradecanoyl phorbol acetate (TPA) at a concentration of 32 nM as the agonist. Samples of 3,5-Di-tert-butyl, 4- hydroxybenzaldehyde (DTHB) in concentrations of either 10, 50, or 100 μM were tested. […] However, treatment with DTHB blocked PGE-2 production by at least 50.

As to `CCOc1ccc(C=O)cc1` [4-EB, 4-ethoxybenzaldehyde, reference compound], in the test with PGE-2 [1], the inhibition (usually the percentage by which the read-out fell short of the control) at 1 µM is 10%, the inhibition at 10 µM was 6% and the inhibition at 50 µM was 100%.
`CC(C)(C)c1cc(C=O)cc(C(C)(C)C)c1O` [DTHB, 3,5 di-tert-butyl-4-hydroxybenzaldehyde]: the inhibition at 10 µM in the test with PGE-2 [2] (Keratinocyte, compound 10 μM, read-out: percent inhibition of TPA-induced PGE-2) was found to be 87.9%. Also, the “blocked PGE-2 production” value in the test on PGE-2 [2] (DTHB 10, 50, or 100 μM) was “at least 50”. Besides, in the test with PGE-2 [1], the inhibition at 1 µM turned out to be 3.3%, the inhibition at 10 µM amounted to 44.4% and the inhibition at 50 µM is 100%.
